Measured values taken from patent publication EP4678638A1, “NEW E3 UBIQUITIN LIGASE LIGAND, PROTEIN DEGRADATION AGENT AND USE THEREOF” (priority 2023, dated 2024).
Where two headings read alike, the source gives them in different places.

How the values were obtained:
H2228 = assay: CCK-8 proliferation, NCI-H2228 (H2228); type: cell-based; settings: Homo sapiens, NCI-H2228; Table B6, compounds designed based on the ALK inhibitors; H2228 cells; read-out: Inhibitory activity (IC50, nM) on tumor cell proliferation, H2228
Experimental: (§1) The tumor cells used herein were cultured in a cell culture medium listed in table A1 at 37°C in an incubator with 5% CO2. Prior to experimentation, all cell lines used were correctly identified by STR profiling, and tested negative for mycoplasma contamination using a mycoplasma detection kit through routine screenings. Table A1. Tumor cells and cell culture medium used in the present disclosure
(§2) IC50 values of the compounds of the present disclosure (including the compounds in Table 1, and compounds of examples) were measured using the Meilun Cell Counting Kit-8 kit from Dalian Meilun Biotech Co., Ltd. Assay details are as follows: tumor cells were seeded in a 96-well plate at a density listed in Table A2. After 24h, 100 µL of the inoculated cells were treated with 0.5µL of the compounds of the present disclosure (including the compounds in Tables 1 and 2, and compounds of examples) at 10 different successively decreasing concentrations (starting at the highest concentration of 10µM; 5-fold serial dilutions). After the cells were treated with the compounds of the present disclosure for a period of time, the cell viability detection reagent was added to the culture medium for cell viability assessment according to the instructions provided with the CCK-8 kit. […] The growth inhibition of the compounds of the present disclosure on cells was plotted by Prism Graphpad software, and the IC50 values of the compounds of the present disclosure were calculated therefrom. […] Seeding protocol and treatment time for tumor cells

SR = assay: CCK-8 proliferation, SR; type: cell-based, Human; settings: Homo sapiens; Table B6, compounds designed based on the ALK inhibitors; SR cells; read-out: Inhibitory activity (IC50, nM) on tumor cell proliferation, SR
Experimental: as §1, §2

MCF7 = assay: CCK-8 proliferation, MCF7 (MCF-7); type: cell-based; settings: Homo sapiens, MCF7
Experimental: as §1, §2

H1975 = assay: CCK-8 proliferation, NCI-H1975 (H1975); type: cell-based, Human; settings: Homo sapiens, NCI-H1975
Experimental: as §1, §2

[1] = Table B6, compounds designed based on the ALK inhibitors, H1975 cells, read-out: Inhibitory activity (IC50, nM) on tumor cell proliferation, H1975
[2] = CCK-8, 96 hours, read-out: Inhibitory activity (IC50) on tumor cell proliferation, H1975

Structure (SMILES) | IC50 (H2228) | IC50 (H1975; [2]) | IC50 (SR) | also measured
Cc1cc(Nc2ncc(Cl)c(Nc3ccccc3S(=O)(=O)C(C)C)n2)c(OC(C)C)cc1C1CCN(Cc2ccc(C3CCC(=O)NC3=O)c(F)c2)CC1 (centres unmarked) [GT-07365, 3-(4-((4-(4-((5-chloro-4-((2-(isopropylsulfonyl)phenyl)amino)pyrimidin-2-yl)amino)-5-isopropoxy-2-methylphenyl)piperidin-1-yl)methyl)-2-fluorophenyl)piperidine-2,6-dione] | 100 to 500 nM |  | 100 to 500 nM | 
COc1cc(N2CCN(Cc3cncc(N4CCC(=O)NC4=O)c3)CC2)ccc1Nc1ncc(Cl)c(Nc2ccccc2P(C)(C)=O)n1 [GT-07709, 1-(5-((4-(4-((5-chloro-4-((2-(dimethylphosphoryl)phenyl)amino)pyrimidin-2-yl)amino)-3-methoxyphenyl)piperazin-1-yl)methyl)pyridin-3-yl)dihydropyrimidine-2,4(1H,3H)-dione] | 500 to 1000 nM |  | 50 to 100 nM | 
CCc1cc2c(cc1N1CCC(N3CCN(Cc4cccc(NC5CCC(=O)NC5=O)c4)CC3)CC1)C(C)(C)c1[nH]c3cc(C#N)ccc3c1C2=O (centres unmarked) [GT-07313, 8-(4-(4-(3-((2,6-dioxopiperidin-3-yl)amino)benzyl)piperazin-1-yl)piperidin-1-yl)-9-ethyl-6,6-dimethyl-11-oxo-6,11-dihydro-5H-benzo[b]carbazole-3-carbonitrile] | 100 to 500 nM |  | 1 to 10 nM | 
CC(=O)c1c(C)c2cnc(Nc3ccc(N4CCN(Cc5cccc(N6CCC(=O)NC6=O)c5)CC4)cn3)nc2n(C2CCCC2)c1=O [GT-06577, 1-(3-((4-(6-((6-acetyl-8-cyclopentyl-5-methyl-7-oxo-7,8-dihydropyrido[2,3-d]pyrimidin-2-yl)amino)pyridin-3-yl)piperazin-1-yl)methyl)phenyl)dihydropyr imidine-2,4(1H,3H)-dione] |  |  |  | IC50 (MCF7; CCK-8, read-out: Inhibitory activity (IC50) on tumor cell proliferation, MCF7): 100 to 500 nM
CCc1cc2c(cc1N1CCC(N3CCN(Cc4ccc(N5CCC(=O)NC5=O)cc4)CC3)CC1)C(C)(C)c1[nH]c3cc(C#N)ccc3c1C2=O [GT-07307, 8-(4-(4-(4-(2,4-dioxotetrahydropyrimidin-1(2H)-yl)benzyl)piperazin-1-yl)piperidin-1-yl)-9-ethyl-6,6-dimethyl-11-oxo-6,11-dihydro-5H-benzo[b]carbazole-3-carbonitrile] | 100 to 500 nM |  | 10 to 50 nM | IC50 (MCF7; Table B6, compounds designed based on the ALK inhibitors, MCF-7 cells, read-out: Inhibitory activity (IC50, nM) on tumor cell proliferation, MCF-7): 100 to 500 nM
CCc1cc2c(cc1N1CCC(N3CCN(Cc4ccnc(C5CCC(=O)NC5=O)c4)CC3)CC1)C(C)(C)c1[nH]c3cc(C#N)ccc3c1C2=O (centres unmarked) [GT-07704, 8-(4-(4-((2-(2,6-dioxopiperidin-3-yl)pyridin-4-yl)methyl)piperazin-1-yl)piperidin-1-yl)-9-ethyl-6,6-dimethyl-11-oxo-6,11-dihydro-5H-benzo[b]carbazole-3-carbonitrile] | 50 to 100 nM |  | 1 to 10 nM | IC50 (H1975; [1]): 500 to 1000 nM
COc1cc(N2CCN(Cc3ccc(N4CCC(=O)NC4=O)nc3)CC2)ccc1Nc1ncc(Cl)c(Nc2ccccc2P(C)(C)=O)n1 [GT-07350, 1-(5-((4-(4-((5-chloro-4-((2-(dimethylphosphoryl)phenyl)amino)pyrimidin-2-yl)amino)-3-methoxyphenyl)piperazin-1-yl)methyl)pyridin-2-yl)dihydropyrimidine-2,4(1H,3H)-dione] | 100 to 500 nM |  | 50 to 100 nM | IC50 (H1975; [1]): 500 to 1000 nM
COc1cc(N2CCN(Cc3ccnc(C4CCC(=O)NC4=O)c3)CC2)ccc1Nc1ncc(Cl)c(Nc2ccccc2P(C)(C)=O)n1 (centres unmarked) [GT-07712, 3-(4-((4-(4-((5-chloro-4-((2-(dimethylphosphoryl)phenyl)amino)pyrimidin-2-yl)amino)-3-methoxyphenyl)piperazin-1-yl)methyl)pyridin-2-yl)piperidine-2,6-dione] | 100 to 500 nM |  | 10 to 50 nM | IC50 (H1975; [1]): 500 to 1000 nM

Further lines, with some results ahead:

IC50 (H2228) | IC50 (H1975; [2]) | Structure (SMILES) | IC50 (SR) | also measured
100 to 500 nM |  | Cc1cc(Nc2ncc(Cl)c(Nc3ccccc3S(=O)(=O)C(C)C)n2)c(OC(C)C)cc1C1CCN(Cc2cc(C3CCC(=O)NC3=O)cnc2F)CC1 (centres unmarked) [GT-07598, 3-(5-((4-(4-((5-chloro-4-((2-(isopropylsulfonyl)phenyl)amino)pyrimidin-2-yl)amino)-5-isopropoxy-2-methylphenyl)piperidin-1-yl)methyl)-6-fluoropyridin-3-yl)piperidine-2,6-dione] | 100 to 500 nM | 
 | 1 to 10 nM | O=C1CCC(c2cncc(CN3CCN(c4ccc(-c5cc(F)c6c(c5)C(=O)N(C(C(=O)Nc5nccs5)c5ncn7c5CCC7)C6)cc4)CC3)c2)C(=O)N1 (centres unmarked) [GT-07472, 2-(6,7-dihydro-5H-pyrrolo[1,2-c]imidazol-1-yl)-2-(6-(4-(4-((5-(2,6-dioxopiperidin-3-yl)pyridin-3-yl)methyl)piperazin-1-yl)phenyl)-4-fluoro-1-oxoisoindolin-2-yl)-N-(thiazol-2-yl)acetamide] |  | 
 | 1 to 10 nM | CN(Cc1ccc(N2CCC(=O)NC2=O)nc1)C1CCN(c2ccc(-c3cc(F)c4c(c3)C(=O)N(C(C(=O)Nc3nccs3)c3ncn5c3CCC5)C4)cc2)CC1 (centres unmarked) [GT-05283, 2-(6,7-dihydro-5H-pyrrolo[1,2-c]imidazol-1-yl)-2-(6-(4-(4-(((6-(2,4-dioxotetrahydropyrimidin-1(2H)-yl)pyridin-3-yl)methyl)(methyl)amino)piperidin-1-yl)phenyl)-4-fluoro-1-oxoisoindolin-2-yl)-N-(thiazol-2-yl)acetamide] |  | 
 | 1 to 10 nM | O=C1CCN(c2cc(CN3CCN(c4ccc(-c5cc(F)c6c(c5)C(=O)N(C(C(=O)Nc5nccs5)c5ncn7c5CCC7)C6)cc4)CC3)c(F)cn2)C(=O)N1 (centres unmarked) [GT-07378, 2-(6,7-dihydro-5H-pyrrolo[1,2-c]imidazol-1-yl)-2-(6-(4-(4-((2-(2,4-dioxotetrahydropyrimidin-1(2H)-yl)-5-fluoropyridin-4-yl)methyl)piperazin-1-yl)phenyl)-4-fluoro-1-oxoisoindolin-2-yl)-N-(thiazol-2-yl)acetamide] |  | 
 | 10 to 50 nM | O=C1CCC(Nc2cccc(CN3C[C@H]4C[C@@H]3CN4c3ccc(-c4cc(F)c5c(c4)C(=O)N(C(C(=O)Nc4nccs4)c4ncn6c4CCC6)C5)cc3)c2)C(=O)N1 (stereo partly drawn) [GT-06179, 2-(6,7-dihydro-5H-pyrrolo[1,2-c]imidazol-1-yl)-2-(6-(4-((1R,4R)-5-(3-((2,6-dioxopiperidin-3-yl)amino)benzyl)-2,5-diazabicyclo[2.2.1]heptan-2-yl)phenyl)-4-fluoro-1-oxoisoindolin-2-yl)-N-(thiazol-2-yl)acetamide] |  | 
 | 1 to 10 nM | CN(Cc1cncc(N2CCC(=O)NC2=O)c1)C1CCN(c2ccc(-c3cc(F)c4c(c3)C(=O)N(C(C(=O)Nc3nccs3)c3ncn5c3CCC5)C4)cc2)CC1 (centres unmarked) [GT-07384, 2-(6,7-dihydro-5H-pyrrolo[1,2-c]imidazol-1-yl)-2-(6-(4-(4-(((5-(2,4-dioxotetrahydropyrimidin-1(2H)-yl)pyridin-3-yl)methyl)(methyl)amino)piperidin-1-yl)phenyl)-4-fluoro-1-oxoisoindolin-2-yl)-N-(thiazol-2-yl)acetamide] |  | 
 | 1 to 10 nM | O=C1CCC(c2ccc(CN3C[C@H]4C[C@@H]3CN4c3ccc(-c4cc(F)c5c(c4)C(=O)N(C(C(=O)Nc4nccs4)c4ncn6c4CCC6)C5)cc3)cc2)C(=O)N1 (stereo partly drawn) [GT-06176, 2-(6,7-dihydro-5H-pyrrolo[1,2-c]imidazol-1-yl)-2-(6-(4-((1R,4R)-5-(4-(2,6-dioxopiperidin-3-yl)benzyl)-2,5-diazabicyclo[2.2.1]heptan-2-yl)phenyl)-4-fluoro-1-oxoisoindolin-2-yl)-N-(thiazol-2-yl)acetamide] |  | 
 | 1 to 10 nM | CN(Cc1ccc(C2CCC(=O)NC2=O)cc1)C1CCN(c2ccc(-c3cc(F)c4c(c3)C(=O)N(C(C(=O)Nc3nccs3)c3ncn5c3CCC5)C4)cc2)CC1 (centres unmarked) [GT-05218, 2-(6,7-dihydro-5H-pyrrolo[1,2-c]imidazol-1-yl)-2-(6-(4-(4-((4-(2,6-dioxopiperidin-3-yl)benzyl)(methyl)amino)piperidin-1-yl)phenyl)-4-fluoro-1-oxoisoindolin-2-yl)-N-(thiazol-2-yl)acetamide] |  | 
 | 1 to 10 nM | CN(Cc1cc(C2CCC(=O)NC2=O)cnc1F)C1CCN(c2ccc(-c3cc(F)c4c(c3)C(=O)N(C(C(=O)Nc3nccs3)c3ncn5c3CCC5)C4)cc2)CC1 (centres unmarked) [GT-07560, 2-(6,7-dihydro-5H-pyrrolo[1,2-c]imidazol-1-yl)-2-(6-(4-(4-(((5-(2,6-dioxopiperidin-3-yl)-2-fluoropyridin-3-yl)methyl)(methyl)amino)piperidin-1-yl)phenyl)-4-fluoro-1-oxoisoindolin-2-yl)-N-(thiazol-2-yl)acetamide] |  | 
